Results as given in paper PMC6540285, “Evaluation of Protein Kinase Inhibitors with PLK4 Cross-Over Potential in a Pre-Clinical Model of Cancer” (International Journal of Molecular Sciences, 2019).

What was measured:
PHKG1 = PHKG1 (Homo sapiens, UniProt Q16816); assay: SelectScreen kinase profiling, ZLYTE; type: biochemical; conditions: PHKG1, 10 µM
CLK4 = CLK4 (Homo sapiens, UniProt Q9HAZ1); assay: SelectScreen kinase profiling, LanthaScreen binding; conditions: CLK4, 10 µM
MAP2K1 (MEK1) = MAP2K1 (MEK1) (Homo sapiens, UniProt Q02750); assay: SelectScreen kinase profiling, ZLYTE; type: biochemical
CDK5/p35 = CDK5/p35 (Homo sapiens, UniProt Q00535); assay: SelectScreen kinase profiling, ZLYTE; type: biochemical; conditions: CDK5/p35, 10 µM
CDK9 (Inactive) = CDK9 (Inactive) (Homo sapiens, UniProt P50750); assay: SelectScreen kinase profiling, LanthaScreen binding
CAMK2D (CaMKII delta) = CAMK2D (CaMKII delta) (Homo sapiens, UniProt Q13557); assay: SelectScreen kinase profiling, ZLYTE; type: biochemical
CAMKK1 (CAMKKA) = CAMKK1 (CAMKKA) (Homo sapiens, UniProt Q8N5S9); assay: SelectScreen kinase profiling, LanthaScreen binding
AMPK (A1/B2/G1) = AMPK (A1/B2/G1) (Homo sapiens, UniProt Q13131); assay: as above
EPHA5 = EPHA5 (Homo sapiens, UniProt P54756); assay: SelectScreen kinase profiling, ZLYTE; type: biochemical; conditions: EPHA5, 10 µM
MYLK2 (skMLCK) = MYLK2 (skMLCK) (Homo sapiens, UniProt Q9H1R3); assay: SelectScreen kinase profiling, ZLYTE; type: biochemical
RT and MB cells = assay: Cell cycle analysis (PI flow cytometry); type: cell-based; conditions: 2µM
Method: Cell cycle analysis was performed by flow cytometry of cells stained with Propidium Iodide (PI) (Thermo Fisher Scientific, Carlsbad, CA, USA) according to manufacturer’s instructions. Cells treated with the top PLK4i candidates and 0.1% DMSO (control) were fixed in 80% ethanol overnight, stained with PI, and then subjected to flow cytometric analysis using a BD Fortessa instrument (BD Biosciences, San Jose, CA, USA). Data was analyzed using Modfit LT from Verity Software House (Topsham, ME, USA). All experiments were performed in triplicate.

ALK L1196M = ALK L1196M (Homo sapiens, UniProt Q9UM73, L1196M); assay: SelectScreen kinase profiling, LanthaScreen binding
ABL1 H396P = ABL1 H396P (Homo sapiens, UniProt P00519, H396P); assay: as above
MAP3K2 (MEKK2) = MAP3K2 (MEKK2) (Homo sapiens, UniProt Q9Y2U5); assay: as above
JAK1 = JAK1 (Homo sapiens, UniProt P23458); assay: SelectScreen kinase profiling, ZLYTE; type: biochemical; conditions: JAK1, 10 µM
CDK11 (Inactive) = CDK11 (Inactive) (Homo sapiens, UniProt Q9BWU1); assay: SelectScreen kinase profiling, LanthaScreen binding
PRKCB1 (PKC beta I) = PRKCB1 (PKC beta I) (Homo sapiens, UniProt P05771); assay: SelectScreen kinase profiling, ZLYTE; type: biochemical
MAP3K19 (YSK4) = MAP3K19 (YSK4) (Homo sapiens, UniProt Q56UN5); assay: SelectScreen kinase profiling, ZLYTE; type: biochemical
MAPK14 (p38 alpha) = MAPK14 (p38 alpha) (Homo sapiens, UniProt Q16539); assay: SelectScreen kinase profiling, ZLYTE; type: biochemical
[1] = biological target: MAP2K1 (MEK1) S218D S222D (Homo sapiens, UniProt Q02750, S218D/S222D); assay: SelectScreen kinase profiling, LanthaScreen binding
NEK8 = NEK8 (Homo sapiens, UniProt Q86SG6); assay: as above; conditions: NEK8, 10 µM
BRAF = BRAF (Homo sapiens, UniProt P15056); assay: SelectScreen kinase profiling, ZLYTE; type: biochemical
PTK2B (FAK2) = PTK2B (FAK2) (Homo sapiens, UniProt Q14289); assay: SelectScreen kinase profiling, ZLYTE; type: biochemical
FRK (PTK5) = FRK (PTK5) (Homo sapiens, UniProt P42685); assay: SelectScreen kinase profiling, ZLYTE; type: biochemical
CAMKK2 (CaMKK beta) = CAMKK2 (CaMKK beta) (Homo sapiens, UniProt Q96RR4); assay: SelectScreen kinase profiling, LanthaScreen binding
ACVR1B (ALK4) = ACVR1B (ALK4) (Homo sapiens, UniProt P36896); assay: SelectScreen kinase profiling, ZLYTE; type: biochemical
AMPK (A1/B2/G2) = AMPK (A1/B2/G2) (Homo sapiens, UniProt Q13131); assay: SelectScreen kinase profiling, ZLYTE; type: biochemical
KIT V559D = KIT V559D (Homo sapiens, UniProt P10721, V559D); assay: SelectScreen kinase profiling, ZLYTE; type: biochemical
STK38 (NDR) = STK38 (NDR) (Homo sapiens, UniProt Q15208); assay: SelectScreen kinase profiling, LanthaScreen binding
MAP4K5 (KHS1) = MAP4K5 (KHS1) (Homo sapiens, UniProt Q9Y4K4); assay: SelectScreen kinase profiling, ZLYTE; type: biochemical
[2] = biological target: CSNK1E (CK1 epsilon) R178C (Homo sapiens, UniProt P49674, R178C); assay: SelectScreen kinase profiling, ZLYTE; type: biochemical
FGFR3 K650M = FGFR3 K650M (Homo sapiens, UniProt P22607, K650M); assay: SelectScreen kinase profiling, LanthaScreen binding
ROCK2 = ROCK2 (Homo sapiens, UniProt O75116); assay: SelectScreen kinase profiling, ZLYTE; type: biochemical; conditions: ROCK2, 10 µM
ERBB2 (HER2) = ERBB2 (HER2) (Homo sapiens, UniProt P04626); assay: SelectScreen kinase profiling, ZLYTE; type: biochemical
RAF1 (cRAF) Y340D Y341D = RAF1 (cRAF) Y340D Y341D (Homo sapiens, UniProt P04049, Y340D/Y341D); assay: SelectScreen kinase profiling, LanthaScreen binding
hERG channel = hERG channel (Homo sapiens, UniProt Q12809); assay: biochemical
MAPK8 (JNK1) = MAPK8 (JNK1) (Homo sapiens, UniProt P45983); assay: SelectScreen kinase profiling, ZLYTE; type: biochemical

Chain of RAF1 (cRAF) Y340D Y341D (P04049 whole entry Y340D/Y341D): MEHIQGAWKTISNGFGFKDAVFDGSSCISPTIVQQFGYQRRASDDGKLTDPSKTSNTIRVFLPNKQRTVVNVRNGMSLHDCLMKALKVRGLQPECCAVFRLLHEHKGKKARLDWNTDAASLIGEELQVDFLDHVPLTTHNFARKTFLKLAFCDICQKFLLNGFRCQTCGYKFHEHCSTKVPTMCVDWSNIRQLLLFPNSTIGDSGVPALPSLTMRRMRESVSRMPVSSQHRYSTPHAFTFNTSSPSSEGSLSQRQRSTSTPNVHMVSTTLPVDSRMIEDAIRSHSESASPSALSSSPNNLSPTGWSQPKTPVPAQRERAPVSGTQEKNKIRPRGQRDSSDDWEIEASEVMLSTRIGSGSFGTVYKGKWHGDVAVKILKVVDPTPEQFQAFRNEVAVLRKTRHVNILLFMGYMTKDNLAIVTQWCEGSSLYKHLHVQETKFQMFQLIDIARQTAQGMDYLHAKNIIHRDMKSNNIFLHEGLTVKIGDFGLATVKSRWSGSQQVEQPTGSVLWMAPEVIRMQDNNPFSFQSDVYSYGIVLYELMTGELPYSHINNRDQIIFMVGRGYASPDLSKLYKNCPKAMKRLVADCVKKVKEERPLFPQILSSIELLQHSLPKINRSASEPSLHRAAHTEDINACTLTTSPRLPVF
Chain of CDK9 (Inactive) (P50750 whole entry): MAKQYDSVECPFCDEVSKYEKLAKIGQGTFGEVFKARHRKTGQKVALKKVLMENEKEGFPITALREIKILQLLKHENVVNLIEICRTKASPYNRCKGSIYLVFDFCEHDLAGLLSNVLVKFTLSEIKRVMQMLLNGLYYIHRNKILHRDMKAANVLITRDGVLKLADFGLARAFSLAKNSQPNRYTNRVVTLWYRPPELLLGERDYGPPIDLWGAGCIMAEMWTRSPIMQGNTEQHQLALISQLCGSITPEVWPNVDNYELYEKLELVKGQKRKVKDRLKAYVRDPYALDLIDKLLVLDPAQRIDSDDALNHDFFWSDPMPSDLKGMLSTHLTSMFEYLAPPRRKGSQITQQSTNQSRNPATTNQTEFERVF
Chain of BRAF (P15056 whole entry): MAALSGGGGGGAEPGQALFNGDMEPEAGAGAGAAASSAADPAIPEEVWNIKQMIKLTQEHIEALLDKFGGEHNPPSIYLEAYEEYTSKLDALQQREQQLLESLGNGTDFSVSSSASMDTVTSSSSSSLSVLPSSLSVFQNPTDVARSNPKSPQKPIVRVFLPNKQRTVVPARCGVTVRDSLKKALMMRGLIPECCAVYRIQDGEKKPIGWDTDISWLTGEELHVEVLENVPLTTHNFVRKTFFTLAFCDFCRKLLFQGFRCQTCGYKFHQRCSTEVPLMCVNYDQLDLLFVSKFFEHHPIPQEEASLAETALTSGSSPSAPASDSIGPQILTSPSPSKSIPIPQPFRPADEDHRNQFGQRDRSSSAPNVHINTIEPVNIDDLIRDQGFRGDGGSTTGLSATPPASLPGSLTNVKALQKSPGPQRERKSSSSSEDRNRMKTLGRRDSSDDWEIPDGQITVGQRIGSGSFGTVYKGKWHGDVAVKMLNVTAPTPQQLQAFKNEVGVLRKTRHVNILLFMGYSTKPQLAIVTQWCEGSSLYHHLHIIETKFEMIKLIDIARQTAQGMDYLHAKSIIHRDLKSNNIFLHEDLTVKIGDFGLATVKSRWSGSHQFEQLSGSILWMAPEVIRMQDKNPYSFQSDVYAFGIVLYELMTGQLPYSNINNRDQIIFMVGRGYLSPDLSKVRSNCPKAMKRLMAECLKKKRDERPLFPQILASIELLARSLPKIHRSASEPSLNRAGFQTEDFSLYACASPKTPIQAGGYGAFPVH
Chain of CAMKK2 (CaMKK beta) (Q96RR4 whole entry): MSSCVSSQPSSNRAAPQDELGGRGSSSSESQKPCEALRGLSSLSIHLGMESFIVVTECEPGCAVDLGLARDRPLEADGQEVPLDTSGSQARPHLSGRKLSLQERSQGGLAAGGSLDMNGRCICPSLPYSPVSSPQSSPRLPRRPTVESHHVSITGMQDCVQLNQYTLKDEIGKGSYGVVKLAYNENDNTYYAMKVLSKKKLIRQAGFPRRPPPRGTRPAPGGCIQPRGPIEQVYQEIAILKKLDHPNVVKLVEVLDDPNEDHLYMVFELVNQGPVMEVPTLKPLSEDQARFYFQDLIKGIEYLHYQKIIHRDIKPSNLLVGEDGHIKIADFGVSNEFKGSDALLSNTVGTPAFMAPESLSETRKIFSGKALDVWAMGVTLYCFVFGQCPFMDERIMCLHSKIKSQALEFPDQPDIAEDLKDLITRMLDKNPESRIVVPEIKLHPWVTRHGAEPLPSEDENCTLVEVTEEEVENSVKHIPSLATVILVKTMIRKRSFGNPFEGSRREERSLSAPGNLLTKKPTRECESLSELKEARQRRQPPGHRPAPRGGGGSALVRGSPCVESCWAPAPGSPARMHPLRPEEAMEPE
Chain of AMPK (A1/B2/G1) (Q13131 whole entry): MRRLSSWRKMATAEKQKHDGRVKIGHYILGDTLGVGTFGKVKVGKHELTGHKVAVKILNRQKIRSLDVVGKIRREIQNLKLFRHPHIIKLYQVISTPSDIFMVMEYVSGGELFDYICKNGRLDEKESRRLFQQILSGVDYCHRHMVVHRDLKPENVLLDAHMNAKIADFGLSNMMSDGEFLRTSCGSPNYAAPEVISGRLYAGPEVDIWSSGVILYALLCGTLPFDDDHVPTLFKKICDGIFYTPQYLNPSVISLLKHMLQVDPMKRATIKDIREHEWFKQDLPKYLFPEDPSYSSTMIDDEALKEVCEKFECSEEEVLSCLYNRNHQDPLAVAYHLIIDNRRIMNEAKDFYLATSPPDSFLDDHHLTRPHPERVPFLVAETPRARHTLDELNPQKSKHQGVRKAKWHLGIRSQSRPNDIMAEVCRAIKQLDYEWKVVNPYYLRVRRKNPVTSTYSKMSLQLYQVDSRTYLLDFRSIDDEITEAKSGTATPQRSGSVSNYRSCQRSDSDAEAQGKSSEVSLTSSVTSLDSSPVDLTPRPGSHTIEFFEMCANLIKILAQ
Chain of AMPK (A1/B2/G1) (O43741 whole entry partner): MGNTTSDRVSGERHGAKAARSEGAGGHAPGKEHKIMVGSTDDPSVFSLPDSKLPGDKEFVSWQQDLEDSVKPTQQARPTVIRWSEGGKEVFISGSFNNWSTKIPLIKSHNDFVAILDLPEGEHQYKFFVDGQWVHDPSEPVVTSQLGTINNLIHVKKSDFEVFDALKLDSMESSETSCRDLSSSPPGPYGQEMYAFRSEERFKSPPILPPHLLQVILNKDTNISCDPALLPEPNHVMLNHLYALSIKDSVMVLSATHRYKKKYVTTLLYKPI
Chain of AMPK (A1/B2/G1) (P54619 whole entry partner): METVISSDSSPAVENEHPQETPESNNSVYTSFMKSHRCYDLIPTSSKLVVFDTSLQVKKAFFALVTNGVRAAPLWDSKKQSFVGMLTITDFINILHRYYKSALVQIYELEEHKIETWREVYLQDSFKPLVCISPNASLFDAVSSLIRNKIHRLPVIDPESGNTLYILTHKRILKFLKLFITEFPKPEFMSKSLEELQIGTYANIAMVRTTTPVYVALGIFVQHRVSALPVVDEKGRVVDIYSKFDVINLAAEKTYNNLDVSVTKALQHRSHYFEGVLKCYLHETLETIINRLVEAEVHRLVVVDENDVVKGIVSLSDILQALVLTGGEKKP
Chain of AMPK (A1/B2/G2) (Q13131 whole entry): as the sequence (Q13131 whole entry) above
Chain of AMPK (A1/B2/G2) (O43741 whole entry partner): as the sequence (O43741 whole entry partner) above
Chain of AMPK (A1/B2/G2) (Q9UGJ0 whole entry partner): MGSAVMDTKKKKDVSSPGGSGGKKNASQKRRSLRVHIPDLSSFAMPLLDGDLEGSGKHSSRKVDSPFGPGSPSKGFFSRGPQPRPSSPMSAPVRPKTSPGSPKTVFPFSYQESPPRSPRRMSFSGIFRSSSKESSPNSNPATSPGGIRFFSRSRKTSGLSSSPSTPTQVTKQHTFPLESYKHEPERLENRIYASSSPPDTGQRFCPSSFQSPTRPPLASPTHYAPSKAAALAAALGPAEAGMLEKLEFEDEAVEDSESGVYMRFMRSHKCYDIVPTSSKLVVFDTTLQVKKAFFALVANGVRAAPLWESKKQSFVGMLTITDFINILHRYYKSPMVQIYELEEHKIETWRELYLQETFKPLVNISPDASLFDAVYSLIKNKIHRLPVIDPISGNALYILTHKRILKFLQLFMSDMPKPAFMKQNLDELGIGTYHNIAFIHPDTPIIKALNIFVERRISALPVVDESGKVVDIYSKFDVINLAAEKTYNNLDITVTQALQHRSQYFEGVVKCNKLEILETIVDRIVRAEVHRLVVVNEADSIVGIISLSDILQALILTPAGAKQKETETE
Chain of CSNK1E (CK1 epsilon) R178C (P49674 whole entry R178C): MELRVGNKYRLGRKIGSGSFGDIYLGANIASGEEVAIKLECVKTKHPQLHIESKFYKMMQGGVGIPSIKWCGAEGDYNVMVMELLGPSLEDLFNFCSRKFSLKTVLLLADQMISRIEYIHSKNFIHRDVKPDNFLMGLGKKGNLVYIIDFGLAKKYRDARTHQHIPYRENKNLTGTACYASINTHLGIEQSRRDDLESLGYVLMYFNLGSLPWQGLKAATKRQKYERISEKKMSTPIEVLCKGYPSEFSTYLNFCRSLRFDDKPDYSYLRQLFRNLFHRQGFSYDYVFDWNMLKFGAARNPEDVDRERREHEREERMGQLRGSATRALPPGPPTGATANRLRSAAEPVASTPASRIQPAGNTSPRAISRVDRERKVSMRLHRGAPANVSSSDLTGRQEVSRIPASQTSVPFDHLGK
Chain of MAPK14 (p38 alpha) (Q16539 whole entry): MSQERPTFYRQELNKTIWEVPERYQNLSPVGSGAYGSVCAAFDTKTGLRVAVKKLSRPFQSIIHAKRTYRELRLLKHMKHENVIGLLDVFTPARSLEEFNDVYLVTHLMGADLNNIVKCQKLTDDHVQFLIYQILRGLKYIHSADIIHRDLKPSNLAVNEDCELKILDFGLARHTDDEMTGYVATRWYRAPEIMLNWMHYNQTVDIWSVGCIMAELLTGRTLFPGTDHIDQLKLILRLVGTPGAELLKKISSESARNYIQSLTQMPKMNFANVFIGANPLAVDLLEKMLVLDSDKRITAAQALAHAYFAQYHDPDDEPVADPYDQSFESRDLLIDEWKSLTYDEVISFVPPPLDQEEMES

Molecule O=C(c1ccc(/C=C/c2n[nH]c3ccccc23)cc1)N1CCNCC1 [KW-2449] has an inhibition at 10 µM (PHKG1) of 100%, an inhibition at 10 µM (CLK4) of 84% and an inhibition at 10 µM (MAP2K1 (MEK1)) of 72%. It also gave an inhibition at 10 µM (CDK5/p35) of 94%, an inhibition at 10 µM (CDK9 (Inactive)) of 2% and an inhibition at 10 µM (CAMK2D (CaMKII delta)) of 96%. The inhibition at 10 µM (CAMKK1 (CAMKKA)) was 69%, the inhibition at 10 µM (AMPK (A1/B2/G1)) was 77% and the inhibition at 10 µM (EPHA5) was 84%. For the same molecule, the inhibition at 10 µM (MYLK2 (skMLCK)) was 100%, the “polyploidy (cell cycle analysis)” value (RT and MB cells) was “induction of polyploidy with 2µM KW-2449 in all cell lines except DAOY” and the inhibition at 10 µM (ALK L1196M) was 13%. It also gave an inhibition at 10 µM (ABL1 H396P) of 78%, an inhibition at 10 µM (MAP3K2 (MEKK2)) of 86% and an inhibition at 10 µM (JAK1) of 94%. The inhibition at 10 µM (CDK11 (Inactive)) was 29%, the inhibition at 10 µM (PRKCB1 (PKC beta I)) was 19% and the inhibition at 10 µM (MAP3K19 (YSK4)) was 98%. The inhibition at 10 µM (MAPK14 (p38 alpha)) was 33%, the inhibition at 10 µM [1] was 66% and the inhibition at 10 µM (NEK8) was 30%. The inhibition at 10 µM (BRAF) was 67%, the inhibition at 10 µM (PTK2B (FAK2)) was 96% and the inhibition at 10 µM (FRK (PTK5)) was 90%. It also gave an inhibition at 10 µM (CAMKK2 (CaMKK beta)) of 86%, an inhibition at 10 µM (ACVR1B (ALK4)) of 39% and an inhibition at 10 µM (AMPK (A1/B2/G2)) of 99%. The inhibition at 10 µM (KIT V559D) was 91%, the inhibition at 10 µM (STK38 (NDR)) was 85% and the inhibition at 10 µM (MAP4K5 (KHS1)) was 102%. It also gave an inhibition at 10 µM [2] of 71%, an inhibition at 10 µM (FGFR3 K650M) of 22% and an inhibition at 10 µM (ROCK2) of 83%. The inhibition at 10 µM (ERBB2 (HER2)) was 4%, the inhibition at 10 µM (RAF1 (cRAF) Y340D Y341D) was 0% and the IC50 (hERG channel) was over 10 µM. It also gave an inhibition at 10 µM (MAPK8 (JNK1)) of 96%.
